# Tests used:
# U937 cells = assay: Cellular assay in U937 cells to measure the activity of RIPK1-inhibitors on cell death (necroptosis); assay type: cell-based; conditions: Homo sapiens, U-937, 50 μM zVAD.fmk and 100 ng/ml recombinant human TNFα, overnight (18 to 24 hrs), MTS readout
# Description: Absorbance of formazan was read at 490 nm. The inhibitory activity of the test compound was quantified in a concentration response curve (CRC) experiment.
# Compounds were obtained as 10 mM stock solutions and were diluted 1 to 10 volumes with DMSO to yield a 1 mM solution. From this solution 2 μl were diluted with 998 μl growth medium.
# U937 cells were cultured in RPMI1640 Glutamax and 10% heat inactivated FBS. […] 50 μl of compound dilutions, as described in Cellular assay in U937 cells, were added and the cell suspension incubated overnight (18 to 24 hrs) at 37° C., 5% CO2 in a humidified atmosphere (95% rH).
# CellTiter 96 Aqueous reagent was mixed (100 μl PMS (phenazine methosulfate) solution/2 ml MTS (3-(4,5-[…])-5-(3-carboxymethoxyphenyl)-2-(4-sulfophenyl)-2H-tetrazolium, inner salt) solution) and 20 μl were added per well. After 4 hrs incubation at 37° C. (5% CO2 95% rH) optical density was measured at 490 nm on a microplate reader (Tecan Infinite M1000).
# The % inhibition is expressed as percentage of the maximal inhibition value obtained in the absence of TNFα/zVAD.fmc.
# physchem = conditions: 50 mM phosphate buffer, 25 °C, pH 7.4, aqueous buffer, thermodynamic from solid
SMILES,IC50 (U937 cells) [nM],solubility at 16 h (physchem) [µM]
"Cc1ccc([C@@H]2CCON2C(=O)C2CCN(c3cc(-n4ccnc4C)ncn3)CC23CC3)cn1 (mixture of isomers) [Example 33, [5-[6-(2-methylimidazol-1-yl)pyrimidin-4-yl]-5-azaspiro[2.5]octan-8-yl]-[(3S)-3-(6-methylpyridin-3-yl)-1,2-oxazolidin-2-yl]methanone]",16.4,> 1090
"Cc1ccc([C@@H]2CCON2C(=O)C2CCN(c3cc(-c4ccnn4C)ncn3)CC23CC3)cn1 (mixture of isomers) [Example 34, [5-[6-(2-methylpyrazol-3-yl)pyrimidin-4-yl]-5-azaspiro[2.5]octan-8-yl]-[(3S)-3-(6-methylpyridin-3-yl)-1,2-oxazolidin-2-yl]methanone]",52.9,> 1090
"Cc1ccc([C@@H]2CCON2C(=O)[C@@H]2CCN(c3cc(-n4ccnc4C)ncn3)CC23CC3)cn1 (single isomer, unassigned) [Example 78]",32,> 1090
"Cc1ccc([C@@H]2CCON2C(=O)[C@H]2CCN(c3cc(-n4ccnc4C)ncn3)CC23CC3)cn1 (single isomer, unassigned) [Example 79]",–,> 1090
"O=C1OCCN1c1ccnc(N2CCC(C(=O)N3OCC[C@H]3c3cnccn3)CC2)n1 [Example 2, (S)-3-(2-(4-(3-(pyrazin-2-yl)isoxazolidine-2-carbonyl)piperidin-1-yl)pyrimidin-4-yl)oxazolidin-2-one]",50,> 1180
"O=C1CCCN1c1nc(N2CCC(C(=O)N3OCC[C@H]3c3cnccn3)CC2)ncc1F [Example 6, 1-[5-fluoro-2-[4-[(3S)-3-pyrazin-2-ylisoxazolidine-2-carbonyl]-1-piperidyl]pyrimidin-4-yl]pyrrolidin-2-one]",8,> 1130
Cc1ccc([C@@H]2CCON2C(=O)C2CCN(c3ncnc(-c4ccnn4C)n3)CC2)cn1 [Example 8],3,328
"Cc1cnn(-c2ccnc(N3CCC(C(=O)N4OCC[C@H]4c4ccc(C)nc4)CC3)n2)c1 [Example 9, [1-[4-(4-methylpyrazol-1-yl)pyrimidin-2-yl]-4-piperidyl]-[(3S)-3-(6-methyl-3-pyridyl)isoxazolidin-2-yl]methanone]",29,173
"Cc1ccc([C@@H]2CCON2C(=O)C2CCN(c3ncc(F)c(-c4ccnn4C)n3)CC2)cn1 [Example 19, [1-[5-fluoro-4-(2-methylpyrazol-3-yl)pyrimidin-2-yl]-4-piperidyl]-[(3S)-3-(6-methyl-3-pyridyl)isoxazolidin-2-yl]methanone]",–,7.1
"Cc1ncc([C@@H]2CCON2C(=O)C2CCN(c3ncc(F)c(N4CCC5(CC5)C4=O)n3)CC2)cc1F [Example 68, 5-[5-fluoro-2-[4-[(3S)-3-(5-fluoro-6-methylpyridin-3-yl)-1,2-oxazolidine-2-carbonyl]piperidin-1-yl]pyrimidin-4-yl]-5-azaspiro[2.4]heptan-4-one]",10000,–
"Cc1ccc([C@@H]2CCON2C(=O)C2CCN(c3nccc(N4CCC5(CC5)C4=O)n3)CC2)cn1 [Example 70, 5-[2-[4-[(3S)-3-(6-methylpyridin-3-yl)-1,2-oxazolidine-2-carbonyl]piperidin-1-yl]pyrimidin-4-yl]-5-azaspiro[2.4]heptan-4-one]",107,–
"O=C(C1CCN(c2nccc(N3CCCC4(CC4)C3=O)n2)CC1)N1OCC[C@H]1c1cncc(F)c1 [Example 72, 5-[2-[4-[(3S)-3-(5-fluoropyridin-3-yl)-1,2-oxazolidine-2-carbonyl]piperidin-1-yl]pyrimidin-4-yl]-5-azaspiro[2.5]octan-4-one]",58,–
"Cc1ccc([C@@H]2CCON2C(=O)C2CCN(c3nccc(N4CCC(F)(F)C4=O)n3)CC2)cn1 [Example 73, 3,3-difluoro-1-[2-[4-[(3S)-3-(6-methylpyridin-3-yl)-1,2-oxazolidine-2-carbonyl]piperidin-1-yl]pyrimidin-4-yl]pyrrolidin-2-one]",551,–
"Cc1cncc([C@@H]2CCON2C(=O)C2CCN(c3nccc(N4CCC(F)(F)C4=O)n3)CC2)c1 [Example 74, 3,3-difluoro-1-[2-[4-[(3S)-3-(5-methylpyridin-3-yl)-1,2-oxazolidine-2-carbonyl]piperidin-1-yl]pyrimidin-4-yl]pyrrolidin-2-one]",175,–
"Cc1cncc([C@@H]2CCON2C(=O)C2CCN(c3nccc(N4CCCC(F)(F)C4=O)n3)CC2)c1 [Example 76, 3,3-difluoro-1-[2-[4-[(3S)-3-(5-methylpyridin-3-yl)-1,2-oxazolidine-2-carbonyl]piperidin-1-yl]pyrimidin-4-yl]piperidin-2-one]",485,–
"Cc1ccc([C@@H]2CCON2C(=O)[C@H]2CCN(c3cc(-c4ccnn4C)ncn3)CC23CC3)cn1 [Example 80, [5-[6-(2-methylpyrazol-3-yl)pyrimidin-4-yl]-5-azaspiro[2.5]octan-8-yl]-[(3S)-3-(6-methylpyridin-3-yl)-1,2-oxazolidin-2-yl]methanone]",–,> 1090
"Cc1ccc([C@@H]2CCON2C(=O)[C@@H]2CCN(c3ccnc(N4CCCC4=O)n3)CC23CC3)cn1 [Example 85, 1-[4-[(8R)-8-[(3S)-3-(6-methylpyridin-3-yl)-1,2-oxazolidine-2-carbonyl]-5-azaspiro[2.5]octan-5-yl]pyrimidin-2-yl]pyrrolidin-2-one]",517,–
"O=C1CCCN1c1cc(N2CCC(C(=O)N3OCC[C@H]3c3cncc(F)c3)CC2)ncn1 [Example 86, 1-[6-[4-[(3S)-3-(5-fluoropyridin-3-yl)-1,2-oxazolidine-2-carbonyl]piperidin-1-yl]pyrimidin-4-yl]pyrrolidin-2-one]",780,–
"Cc1ccc([C@@H]2CCON2C(=O)C2CCN(c3ccnc(N4CCCC4=O)n3)CC2)cn1 [Example 87, 1-[4-[4-[(3S)-3-(6-methylpyridin-3-yl)-1,2-oxazolidine-2-carbonyl]piperidin-1-yl]pyrimidin-2-yl]pyrrolidin-2-one]",> 10000,–
"Cc1ncc([C@@H]2CCON2C(=O)C2CCN(c3nccc(N4C(=O)CCC4(C)C)n3)CC2)cc1F [Example 89, 1-[2-[4-[(3S)-3-(5-fluoro-6-methylpyridin-3-yl)-1,2-oxazolidine-2-carbonyl]piperidin-1-yl]pyrimidin-4-yl]-5,5-dimethylpyrrolidin-2-one]",320,–
"Cc1ccc([C@@H]2CCON2C(=O)C2CCN(c3ccnc(N4CCCC5(CC5)C4=O)n3)CC2)cn1 [Example 90, 5-[4-[4-[(3S)-3-(6-methylpyridin-3-yl)-1,2-oxazolidine-2-carbonyl]piperidin-1-yl]pyrimidin-2-yl]-5-azaspiro[2.5]octan-4-one]",4430,–
"Cc1nc([C@@H]2CCON2C(=O)C2CCN(c3nccc(N4CCCC4=O)n3)CC2)cs1 [Example 92, 1-[2-[4-[(3S)-3-(2-methyl-1,3-thiazol-4-yl)-1,2-oxazolidine-2-carbonyl]piperidin-1-yl]pyrimidin-4-yl]pyrrolidin-2-one]",18,–
"Cc1ncc([C@@H]2CCON2C(=O)C2CCN(c3nccc(C4COC4)n3)CC2)cc1F [Example 101, [(3S)-3-(5-fluoro-6-methylpyridin-3-yl)-1,2-oxazolidin-2-yl]-[1-[4-(oxetan-3-yl)pyrimidin-2-yl]piperidin-4-yl]methanone]",2600,–
